Experimental findings from US6509377B1, “Use of a 2-hydroxy-4-trifluoromethylbenzoic acid derivatives as inhibitors of the activation of the nuclear transcription factor NF-κB” (J. Uriach & Cia, S.A., priority 1999, dated 2003) are described below.

Data set [1] in a line: Cell viability of 1321N1 cells (EZ4U). In kind it is cell-based. To be noted: human, 1321N1 cells (astrocytoma), read-out: Percentage of cell viability. The procedure:
Several cell lines obtained from the American Type Culture Collection (ATCC) were cultured at 37° C. and under a 5% CO2 atmosphere. Each cell line was grown in an appropriate culture medium and within the exponential phase (Table I).
For the cell viability studies 24-well plates were used, where 0.5×10^6 cells/ml (for 24-hour studies), 0.25×10^6 cells/ml (for 48-hour studies) or 0.125×10^6 cells/ml (for 72-hour studies) were incubated. Next, different concentrations of HTB (1-3 mM) were added and cells were incubated for different time periods (37° C., 5% CO2). After incubation, the supernatant from each well was extracted, and cells were washed with culture medium without fetal calf serum. Then, the supernatant was extracted and 200 μl culture medium without fetal calf serum were added to each well. In addition, 20 μl substrate were added to determine cell viability. This method is based on the ability of viable cells to transform the colourless substrate into a coloured substance that is excreted to the supernatant (EZ4U, Biomedica Gmbh.). After incubating cells for 1 hour at 37° C. and 5% CO2, 200 μl supernatant were collected and the absorbance was measured at 450 nm.
The absorbance was also determined at 620 nm as a measure of the existing non-specific value.

Data set [2] relates to NF-κB. In words: Activation of NF-κB induced by LPS in human PBMC (EMSA). In kind it is cell-based. To be noted: human PBMCs, HTB 1-3 mM, 1 hour, then LPS 10 μg/ml 10 minutes. The procedure:
Mononuclear cells (PBMC) were obtained from blood of healthy donors from the Hospital de Sant Pau (Barcelona) who had not taken any antiinflammatory drug during a period of not less than 2 weeks before blood extraction. Starting from a volume of about 80 ml of heparinized human blood (10 U/ml), this was diluted (1:1) with PBS (pH 7.4; Dulbecco) without calcium, magnesium nor sodium bicarbonate.
15 ml of Ficoll solution (d=1.077 at 20° C.; Biochrom KG) were placed in 50-ml Falcon tubes. To this solution a volume of about 25 ml per tube of the blood previously diluted with PBS was carefully added and the tubes were then centrifuged at 1,200 g for 20 minutes. Mononuclear cells concentrate on a whitish interphase between the plasma and the Ficoll solution. This interphase was collected with a Pasteur pipette and was diluted 1:1 with PBS. It was then centrifuged at 300 g for 10 min. The resulting pellet was resuspended in 50 ml PBS and was again centrifuged at 200 g for 10 min, in order to remove platelet contamination. […]
Prior to the various treatments, cell viability was determined by the Trypan Blue exclusion assay. […]
After incubation, PBMCs were washed twice with PBS and the degree of activation (binding to DNA) of the transcription factor NF-κB was determined using the EMSA assay, described in detail in Example 1.

Data set [3] has as its system NF-κB. In words: NF-κB activation in brain cells of post-natal Long Evans black-hooded rats (NMDA lesion). The class given is in vivo, rat. The procedure: This study was carried out using post-natal (P9) Long Evans black-hooded rats. Each group consisted of 6 animals subjected to an experimental lesion, plus two control animals of the same age. The experimental lesion was induced by intracortical injection (sensorimotor area) of N-methyl-D-aspartate (NMDA), which causes a marked local neuronal degeneration. Triflusal (30 mg/kg) was administered orally in three doses (from day 7 to 9) every 24 hours. Glial reactivity was induced by NMDA injection at postnatal day 9, one hour after the last triflusal dose. At different times (2-24 h) after this last dose, animals were killed, brains were extracted and cut in a cryostat and sections were processed using immunocytochemical and histochemical techniques to determine NF-κB activation in microglia and astroglia using double staining: NF-κB-lectin and NF-κB-GFPA. In parallel, slices were cut on a vibratome to determine the degree of microglial and astroglial reactivity by histoenzymatic techniques (B. Castellano et al., J.Histochem. Cytochem., 1991, 39(5), 561-568).

SMILES strings stand for the structures.

As usually defined, the viability is a read-out of living cells in per cent, often relative to untreated cells. Consider `O=C(O)c1ccc(C(F)(F)F)cc1O` [HTB, 2-hydroxy-4-trifluoromethylbenzoic acid], for which the viability at 0 h, 1 mM in data set [1] (1 mM HTB, 0 hours) was 100%. For the same compound, the viability at 2 h, 1 mM in data set [1] (1 mM HTB, 2 hours) was found to be 99.7%. The viability at 5 h, 1 mM in data set [1] (1 mM HTB, 5 hours) is 94.2%. In addition, the viability at 24 h, 1 mM in data set [1] (1 mM HTB, 24 hours) is 87.5%. For the same compound, in data set [1] (3 mM HTB, 0 hours), the viability at 0 h, 3 mM came to 100%. Besides, the viability at 2 h, 3 mM in data set [1] (3 mM HTB, 2 hours) turned out to be 85.3%. Besides, in data set [1] (3 mM HTB, 5 hours), the viability at 5 h, 3 mM is 67.2%. The viability at 24 h, 3 mM in data set [1] (3 mM HTB, 24 hours) was 62.2%. Further, the viability at 48 h, 3 mM in data set [1] (3 mM HTB, 48 hours) is 17.8%. The “inhibition of the activation of NF-κB induced by LPS” value with NF-κB [2] is given as “markedly inhibits”.

On to `CC(=O)Oc1cc(C(F)(F)F)ccc1C(=O)O` [triflusal, 2-Acetyloxy-4-trifluoromethylbenzoic acid, reference compound], for which, in the data set on NF-κB [3] (30 mg/kg p.o. pretreatment), the “NF-κB activation in astroglial and microglial cells after NMDA excitotoxic lesion” value is recorded as “completely inhibited”. In addition, in the data set on NF-κB [3] (triflusal 30 mg/kg orally, three doses every 24 hours), the “basal (constitutive) NF-κB activation in cortical neurons of control animals” value was “inhibited”.
